Test system: VCaP prostate cancer cell line
Assay: Inhibition of mibolerone-induced VCaP cell proliferation (WST-1)
Format: cell-based
Settings: mibolerone-induced (usually 0.1 nM), 4-5 days
Method: The IC50 value of the test compound for inhibition of mibolerone-induced VCaP cell proliferation was measured.
Cell Proliferation Assays
The ability of test compounds to inhibit prostate cancer cell growth was studied by measuring inhibition of cell proliferation using androgen-sensitive VCaP prostate cancer cell line. […] Cell proliferation was measured using WST-1 Cell Proliferation Assay (Roche).

SMILES	IC50 (Homo sapiens, VCaP)	IC50
C[C@H](Cn1ccc(-c2ccc(C#N)c(Cl)c2)n1)NC(=O)c1csc(N2CCOCC2)n1 [Example 132, (R)—N-(1-(3-(3-chloro-4-cyanophenyl)-1H-pyrazol-1-yl)propan-2-yl)-2-morpholinothiazole-4-carboxamide]	0.21 µM	–
Cc1noc(C(=O)N[C@@H](C)Cn2ccc(-c3ccc(C#N)c(Cl)c3)n2)n1 [Example 103, (S)—N-(1-(3-(3-chloro-4-cyanophenyl)-1H-pyrazol-1-yl)propan-2-yl)-3-methyl-1,2,4-oxadiazole-5-carboxamide]	0.23 µM	–
C[C@@H](Cn1ccc(-c2ccc(C#N)c(Cl)c2)n1)NC(=O)c1[nH]nc2c1COCC2 [Example 338, (S)—N-(1-(3-(3-chloro-4-cyanophenyl)-1H-pyrazol-1-yl)propan-2-yl)-2,4,6,7-tetrahydropyrano [4,3-c]pyrazole-3-carboxamide]	0.34 µM	–
C[C@@H](Cn1ccc(-c2ccc(C#N)c(Cl)c2)n1)NC(=O)c1csc(-c2cn[nH]c2)n1 [Example 206, (S)—N-(1-(3-(3-chloro-4-cyanophenyl)-1H-pyrazol-1-yl)propan-2-yl)-2-(1H-pyrazol-4-yl)thiazole-4-carboxamide]	0.49 µM	–
O=C(NCCc1ccc(-c2ccc(Cl)c(Cl)c2)o1)c1cc(C(=O)N2CCOCC2)n[nH]1 [Example 8, N-(2-(5-(3,4-dichlorophenyl)furan-2-yl)ethyl)-3-(morpholine-4-carbonyl)-1H-pyrazole-5-carboxamide]	1.6 µM	–
Cc1cc(-c2ccn(C[C@H](C)NC(=O)c3cc(-c4ccco4)n[nH]3)n2)ccc1C#N [Example 32, (S)—N-(1-(3-(4-cyano-3-methylphenyl)-1H-pyrazol-1-yl)propan-2-yl)-3-(furan-2-yl)-1H-pyrazole-5-carboxamide]	0.56 µM	–
Cc1nc(C(=O)N[C@@H](C)Cn2ccc(-c3ccc(C#N)c(Cl)c3)n2)c[nH]1 [Example 248, (S)—N-{1-[3-(3-Chloro-4-cyanophenyl)-1H-pyrazol-1-yl]propan-2-yl}-2-methyl-H-imidazole-4-carboxamide]	–	0.49 µM
N#Cc1ccc(-c2ccn(CCNC(=O)c3cc(-c4cccnc4)n[nH]3)n2)cc1C#N [Example 52, N-(2-(3-(3,4-dicyanophenyl)-1H-pyrazol-1-yl)ethyl)-3-(pyridin-3-yl)-1H-pyrazole-5-carboxamide]	0.45 µM	–
C[C@H](CNC(=O)c1csc(CC#N)n1)n1ccc(-c2cc(F)c(C#N)c(F)c2)n1 [Example 222, (R)—N-(2-(3-(4-cyano-3,5-difluorophenyl)-1H-pyrazol-1-yl)propyl)-2-(cyanomethyl)thiazole-4-carboxamide]	0.25 µM	–
Cc1nc(C(=O)N[C@@H](C)Cn2ccc(-c3cc(F)c(C#N)c(Cl)c3)n2)c[nH]1 [Example 249, (S)—N-{1-[3-(3-Chloro-4-cyano-5-fluorophenyl)-1H-pyrazol-1-yl]propan-2-yl}-2-methyl-1H-imidazole-4-carboxamide]	0.32 µM	–
Cc1cc(-c2ccn(CCNC(=O)c3cc(-c4cccnc4)n[nH]3)n2)ccc1C#N [Example 53, N-(2-(3-(4-cyano-3-methylphenyl)-1H-pyrazol-1-yl)ethyl)-3-(pyridin-3-yl)-1H-pyrazole-5-carboxamide]	0.5 µM	–
Cc1c(-c2ccn(C[C@H](C)NC(=O)c3csc(C(C)O)n3)n2)ccc(C#N)c1Cl (stereo partly drawn) [Example 186, N—((S)-1-(3-(3-chloro-4-cyano-2-methylphenyl)-1H-pyrazol-1-yl)propan-2-yl)-2-(1-hydroxyethyl)thiazole-4-carboxamide]	0.31 µM	–
CC(O)c1cc(C(=O)N[C@@H](C)Cn2ccc(-c3ccc(C#N)c(Cl)c3)n2)no1 (stereo partly drawn) [Example 124, N—((S)-1-(3-(3-chloro-4-cyanophenyl)-1H-pyrazol-1-yl)propan-2-yl)-5-(1-hydroxyethyl)isoxazole-3-carboxamide]	0.43 µM	–
Cc1nc(-c2cc(C(=O)N[C@@H](C)Cn3ccc(-c4ccc(C#N)c(Cl)c4)n3)n[nH]2)cs1 [Example 94, (S)—N-(1-(3-(3-chloro-4-cyanophenyl)-1H-pyrazol-1-yl)propan-2-yl)-5-(2-methylthiazol-4-yl)-1H-pyrazole-3-carboxamide]	0.79 µM	–
CCc1noc(C(=O)N[C@@H](C)Cn2ccc(-c3ccc(C#N)c(Cl)c3)n2)n1 [Example 91, (S)—N-(1-(3-(3-chloro-4-cyanophenyl)-1H-pyrazol-1-yl)propan-2-yl)-3-ethyl-1,2,4-oxadiazole-5-carboxamide]	0.33 µM	–
C[C@@H](Cn1ccc(-c2cc(F)c(C#N)c(Cl)c2)n1)NC(=O)c1cn2cccnc2n1 [Example 324, (S)—N-(1-(3-(3-chloro-4-cyano-5-fluorophenyl)-1H-pyrazol-1-yl)propan-2-yl)imidazo [1,2-a]pyrimidine-2-carboxamide]	1 µM	–

From patent US11046713B2, “Androgen receptor modulating compounds” (ORION CORPORATION, priority 2009, dated 2021)
